Measurements taken from patent publication US20230053688A1, “METHODS TO ALTER LATENCY IN EBV+ MALIGNANCIES” (Cornell University, priority 2020, published 2023).
Counter-ions that a name gives are not always drawn. Like-named read-outs stand apart in the source and are kept apart here.

Tested on: LMP1 expression in Kem I cells
Test: microbe, parasite or virus in culture
Type: cell-based, EBV
Conditions: for Average LMP1 Fold Increase / Replicate 1-LMP1 Fold Increase / Replicate 2-LMP1 Fold Increase: Kem I cells, 48 hours; for fold induction at 2.5 µM: human gammaherpesvirus 4, 48 h
[1] = 2.5 uM, average of replicates 1 and 2
[2] = 2.5 uM, fold change in LMP1 transcript vs vehicle
[3] = read-out: Average LMP1 Fold Increase, Kem I cells, 2.5 uM, 48 hours, average of replicates 1 and 2
[4] = read-out: Replicate 1-LMP1 Fold Increase, Kem I cells, 2.5 uM, 48 hours, fold change in LMP1 transcript vs vehicle
[5] = read-out: Replicate 2-LMP1 Fold Increase, Kem I cells, 2.5 uM, 48 hours, fold change in LMP1 transcript vs vehicle
[6] = dose 2.5 uM, LMP1 transcript by in-well qRT-PCR, average of the two replicates
[7] = dose 2.5 uM, LMP1 transcript by in-well qRT-PCR, screen replicate 1
[8] = dose 2.5 uM, LMP1 transcript by in-well qRT-PCR, screen replicate 2
[9] = read-out: Average LMP1 Fold Increase, Kem I cells, dose 2.5 uM, 48 hours, LMP1 transcript by in-well qRT-PCR, average of the two replicates
[10] = read-out: Replicate 1-LMP1 Fold Increase, Kem I cells, dose 2.5 uM, 48 hours, LMP1 transcript by in-well qRT-PCR, screen replicate 1
[11] = read-out: Replicate 2-LMP1 Fold Increase, Kem I cells, dose 2.5 uM, 48 hours, LMP1 transcript by in-well qRT-PCR, screen replicate 2

`Cc1ccc(S(=O)(=O)Cc2nc(-c3ccc(C(=O)NCc4cccnc4)cc3)oc2C)cc1` [STF-118804] was tested, and the “Average LMP1 Fold Increase” value [1] was 0.10, the “Replicate 1-LMP1 Fold Increase” value [2] was 0.08 and the “Replicate 2-LMP1 Fold Increase” value [2] was 0.11.
`Cc1[nH]c(/C=C2\C(=O)Nc3ccc(S(=O)(=O)N(C)c4cccc(Cl)c4)cc32)c(C)c1C(=O)N1CCN(C)CC1` [SU11274] was tested, and the fold induction at 2.5 µM [3] was 0.94, the fold induction at 2.5 µM [4] was 1.05 and the fold induction at 2.5 µM [5] was 0.82.
With `C[C@H](NCc1ccc(OCc2cccc(F)c2)cc1)C(N)=O` [Safinamide Mesylate] the fold induction at 2.5 µM [3] was 0.95, the fold induction at 2.5 µM [4] was 0.2 and the fold induction at 2.5 µM [5] was 1.71.
For `O=C(/C=C/c1ccccc1)NC(NC(=S)Nc1ccc(Cl)cc1)C(Cl)(Cl)Cl` (stereo not drawn) [Sal003], the “Average LMP1 Fold Increase” value [1] was 0.64, the “Replicate 1-LMP1 Fold Increase” value [2] was 0.76 and the “Replicate 2-LMP1 Fold Increase” value [2] was 0.53.
`Cn1cnc2c(F)c(Nc3ccc(Br)cc3Cl)c(C(=O)NOCCO)cc21` [Selumetinib (AZD6244)] was tested, and the “Average LMP1 Fold Increase” value [1] was 0.54, the “Replicate 1-LMP1 Fold Increase” value [2] was 0.64 and the “Replicate 2-LMP1 Fold Increase” value [2] was 0.44.
`CC(C)[C@H](O)C(=O)N[C@@H](C)C(=O)N[C@@H]1C(=O)N(C)CCc2ccccc21` [Semagacestat (LY450139)] was tested, and the “Average LMP1 Fold Increase” value [1] was 0.45, the “Replicate 1-LMP1 Fold Increase” value [2] was 0.31 and the “Replicate 2-LMP1 Fold Increase” value [2] was 0.59.
`CN[C@H]1CC[C@@H](c2ccc(Cl)c(Cl)c2)c2ccccc21` [Sertraline HCl] was tested, and the fold induction at 2.5 µM [3] was 1.07, the fold induction at 2.5 µM [4] was 0.81 and the fold induction at 2.5 µM [5] was 1.33.
In the case of `CC(NC(=O)c1ccccc1/N=C/c1c(O)ccc2ccccc12)c1ccccc1` (stereo not drawn) [Sirtinol], the fold induction at 2.5 µM [3] is reported as 0.6, the fold induction at 2.5 µM [4] is reported as 0.28 and the fold induction at 2.5 µM [5] is reported as 0.92.
With `Cc1cc2c(cc1CC(=O)c1sccc1S(=O)(=O)Nc1onc(C)c1Cl)OCO2` [Sitaxentan sodium] the fold induction at 2.5 µM [3] was 0.25, the fold induction at 2.5 µM [4] was 0.16 and the fold induction at 2.5 µM [5] was 0.34.
With `Nc1ccc(C(=O)O)c(O)c1` [Sodium 4-Aminosalicylate] the fold induction at 2.5 µM [3] was 0.36, the fold induction at 2.5 µM [4] was 0.19 and the fold induction at 2.5 µM [5] was 0.53.
`CNC(=O)c1cc(Oc2ccc(NC(=O)Nc3ccc(Cl)c(C(F)(F)F)c3)cc2)ccn1` [Sorafenib] gave a fold induction at 2.5 µM [3] of 0.54, a fold induction at 2.5 µM [4] of 0.43 and a fold induction at 2.5 µM [5] of 0.64.
With `CN1CCN(c2nc(C3=C(c4c[nH]c5ccccc45)C(=O)NC3=O)c3ccccc3n2)CC1` [Sotrastaurin] the fold induction at 2.5 µM [3] was 0.31, the fold induction at 2.5 µM [4] was 0.3 and the fold induction at 2.5 µM [5] was 0.31.
For `O=[N+]([O-])c1ccc2c(c1)S(=O)(=O)C=C2` [Stattic], the “Average LMP1 Fold Increase” value [1] was 26.57, the “Replicate 1-LMP1 Fold Increase” value [2] was 50.36 and the “Replicate 2-LMP1 Fold Increase” value [2] was 2.79.
`Cc1cn([C@H]2C=C[C@@H](CO)O2)c(=O)[nH]c1=O` [Stavudine (d4T)] was tested, and the “Average LMP1 Fold Increase” value [1] was 0.73, the “Replicate 1-LMP1 Fold Increase” value [2] was 0.83 and the “Replicate 2-LMP1 Fold Increase” value [2] was 0.63.
`Cc1ccc(-n2nccn2)c(C(=O)N2CCN(c3nc4cc(Cl)ccc4o3)CC[C@H]2C)c1` [Suvorexant (MK-4305)] was tested, and the “Average LMP1 Fold Increase” value [6] was 1.47 fold, the “Replicate 1-LMP1 Fold Increase” value [7] was 0.37 fold and the “Replicate 2-LMP1 Fold Increase” value [8] was 2.57 fold.
For `O=C(Nc1ccncc1)c1cc([N+](=O)[O-])ccc1Cl` [T0070907], the “Average LMP1 Fold Increase” value [6] was 0.56 fold, the “Replicate 1-LMP1 Fold Increase” value [7] was 0.63 fold and the “Replicate 2-LMP1 Fold Increase” value [8] was 0.50 fold.
In the case of `O=S(=O)(c1ccccc1)N(CC(F)(F)F)c1ccc(C(O)(C(F)(F)F)C(F)(F)F)cc1` [T0901317], the fold induction at 2.5 µM [9] is reported as 0.44, the fold induction at 2.5 µM [10] is reported as 0.41 and the fold induction at 2.5 µM [11] is reported as 0.47.
In the case of `CNC(=O)c1ccccc1Nc1nc(Nc2ccc(N3CCOCC3)cc2OC)ncc1Cl` [TAE226 (NVP-TAE226)], the “Average LMP1 Fold Increase” value [6] is reported as 1.35 fold, the “Replicate 1-LMP1 Fold Increase” value [7] is reported as 1.38 fold and the “Replicate 2-LMP1 Fold Increase” value [8] is reported as 1.31 fold.
With `CNC(=O)c1ccc2cc([C@@]3(O)CCn4cncc43)ccc2c1` [TAK-700 (Orteronel)] the “Average LMP1 Fold Increase” value [6] was 0.90 fold, the “Replicate 1-LMP1 Fold Increase” value [7] was 0.75 fold and the “Replicate 2-LMP1 Fold Increase” value [8] was 1.06 fold.
For `Cc1cc(OCCCS(C)(=O)=O)cc(C)c1-c1cccc(COc2ccc3c(c2)OC[C@H]3CC(=O)O)c1` [TAK-875], the fold induction at 2.5 µM [9] was 0.57, the fold induction at 2.5 µM [10] was 0.55 and the fold induction at 2.5 µM [11] was 0.59.
With `O=C1CC(=O)c2c(Cl)c(Cl)c(Cl)c(Cl)c21` [TCID] the “Average LMP1 Fold Increase” value [6] was 0.52 fold, the “Replicate 1-LMP1 Fold Increase” value [7] was 0.66 fold and the “Replicate 2-LMP1 Fold Increase” value [8] was 0.38 fold.
For `COc1ccc(C(=O)Nc2sc3c(c2C(N)=O)CCCC3)cc1OC` [TCS 359], the “Average LMP1 Fold Increase” value [6] was 0.40 fold, the “Replicate 1-LMP1 Fold Increase” value [7] was 0.62 fold and the “Replicate 2-LMP1 Fold Increase” value [8] was 0.19 fold.
`Nc1nc(N)c2nc(-c3cccc(O)c3)c(-c3cccc(O)c3)nc2n1` [TG100-115] was tested, and the “Average LMP1 Fold Increase” value [6] was 0.53 fold, the “Replicate 1-LMP1 Fold Increase” value [7] was 0.33 fold and the “Replicate 2-LMP1 Fold Increase” value [8] was 0.73 fold.
With `NC(=O)Nc1sc(-c2ccc(F)cc2)cc1C(N)=O` [TPCA-1] the “Average LMP1 Fold Increase” value [6] was 0.48 fold, the “Replicate 1-LMP1 Fold Increase” value [7] was 0.59 fold and the “Replicate 2-LMP1 Fold Increase” value [8] was 0.36 fold.
With `Nc1cccc(-c2cc3c(Oc4cccc(O)c4)ncnc3[nH]2)c1` [TWS119] the “Average LMP1 Fold Increase” value [6] was 0.56 fold, the “Replicate 1-LMP1 Fold Increase” value [7] was 0.62 fold and the “Replicate 2-LMP1 Fold Increase” value [8] was 0.49 fold.
Work on `CN1CC(=O)N2[C@H](c3ccc4c(c3)OCO4)c3[nH]c4ccccc4c3C[C@@H]2C1=O` [Tadalafil] yielded a fold induction at 2.5 µM [9] of 3.06, a fold induction at 2.5 µM [10] of 3.8 and a fold induction at 2.5 µM [11] of 2.32.
`COc1cc2c(N3CCN(C(=O)Nc4ccc(OC(C)C)cc4)CC3)ncnc2cc1OCCCN1CCCCC1` [Tandutinib (MLN518)] was tested, and the “Average LMP1 Fold Increase” value [6] was 0.31 fold, the “Replicate 1-LMP1 Fold Increase” value [7] was 0.21 fold and the “Replicate 2-LMP1 Fold Increase” value [8] was 0.41 fold.
With `COc1cc2c(cc1OC)CN(CCc1ccc(NC(=O)c3cc(OC)c(OC)cc3NC(=O)c3cnc4ccccc4c3)cc1)CC2` [Tariquidar] the fold induction at 2.5 µM [9] was 0.71, the fold induction at 2.5 µM [10] was 0.56 and the fold induction at 2.5 µM [11] was 0.87.
`CCCc1nc2c(C)cc(-c3nc4ccccc4n3C)cc2n1Cc1ccc(-c2ccccc2C(=O)O)cc1` [Telmisartan] showed a fold induction at 2.5 µM [9] of 0.37, a fold induction at 2.5 µM [10] of 0.29 and a fold induction at 2.5 µM [11] of 0.45.
For `CO[C@H]1C[C@@H]2CC[C@@H](C)[C@@](O)(O2)C(=O)C(=O)N2CCCC[C@H]2C(=O)O[C@H]([C@H](C)C[C@@H]2CC[C@@H](OC(=O)C(C)(CO)CO)[C@H](OC)C2)CC(=O)[C@H](C)/C=C(\C)[C@@H](O)[C@@H](OC)C(=O)[C@H](C)C[C@H](C)/C=C/C=C/C=C/1C` [Temsirolimus (CCI-779, NSC 683864)], the “Average LMP1 Fold Increase” value [6] was 155.77 fold, the “Replicate 1-LMP1 Fold Increase” value [7] was 1.06 fold and the “Replicate 2-LMP1 Fold Increase” value [8] was 310.48 fold.
`CC(C)OC(=O)OCOP(=O)(CO[C@H](C)Cn1cnc2c(N)ncnc21)OCOC(=O)OC(C)C` [Tenofovir Disoproxil Fumarate] gave a fold induction at 2.5 µM [9] of 0.56, a fold induction at 2.5 µM [10] of 0.21 and a fold induction at 2.5 µM [11] of 0.9.
For `C[C@H](Cn1cnc2c(N)ncnc21)OCP(=O)(O)O` [Tenofovir], the “Average LMP1 Fold Increase” value [6] was 0.18 fold, the “Replicate 1-LMP1 Fold Increase” value [7] was 0.18 fold and the “Replicate 2-LMP1 Fold Increase” value [8] was 0.19 fold.
With `CN(C)CCCCC(=O)Nc1ccc(NC(=S)NC(=O)c2ccc(C(C)(C)C)cc2)cc1` [Tenovin-6] the “Average LMP1 Fold Increase” value [6] was 1.79 fold, the “Replicate 1-LMP1 Fold Increase” value [7] was 1.55 fold and the “Replicate 2-LMP1 Fold Increase” value [8] was 2.03 fold.
For `O=C(NCc1ccccc1)c1csc(Nc2ccncn2)n1` [Thiazovivin], the “Average LMP1 Fold Increase” value [6] was 1.05 fold, the “Replicate 1-LMP1 Fold Increase” value [7] was 1.05 fold and the “Replicate 2-LMP1 Fold Increase” value [8] was 1.04 fold.
In the case of `CCCSc1nc(N[C@@H]2C[C@H]2c2ccc(F)c(F)c2)c2nnn([C@@H]3C[C@H](OCCO)[C@@H](O)[C@H]3O)c2n1` [Ticagrelor], the fold induction at 2.5 µM [9] is reported as 0.66, the fold induction at 2.5 µM [10] is reported as 0.61 and the fold induction at 2.5 µM [11] is reported as 0.7.
